# Legend:
# [1] = Pharmacokinetic study of [^14C] DHA and unchanged DHA, single i.v. dose; assay type: in vivo, rats; conditions: for fourth peak concentration of radioactivity: 6 hours; for first peak concentration of radioactivity: at one minute
# Description: Traditional PK studies involve intermittent blood sampling and subsequent determination of drug concentrations in whole blood and plasma. The Culex automated blood sampler provides a way for blood withdrawal at preprogrammed intervals, which is more accurate and less labor intensive. Six rats in the PK group were implanted with a jugular vein catheter under an isofluorane anesthaesia. After the surgery, rats were allowed to recover for 96 hours with free access to food and water. The rats were dosed single i.v. at 3 mg/ml/kg with [^14C] DHA (20 μCi/kg), which was prepared as a 25% cremophore/0.9% saline solution, through the tail vein. […] PK evaluation of [^14C] DHA in plasma and whole blood, as well as unchanged DHA in plasma was conducted in individual rats.
# Total radioactivity in the collected tissue samples were quantified in duplicate. Weighed tissue aliquots (~0.2 g) were digested overnight in 2 ml of Solvable® tissue solubilizer (Perkin-Elmer Life and Analytical Sciences, Boston, MA) at 50°C. Coloured samples were decolourized by adding a maximum of 0.2 ml of 30% H2O2 for 30–60 minutes. Scintillation cocktail (Hyonic Fluor; Perkin-Elmer Boston. Massachusetts, USA) was then added and radioactivity determined in a Perkin-Elmer Tri-Carb 3100 TR scintillation spectrophotometer (Packard Instrument Co., Downers Grove, Illinois, USA). Faeces and intestinal contents were thoroughly homogenized before taking aliquots. Plasma was also analysed using the HPLC-ECD system to measure the concentration of unchanged DHA, as described by Li et al.
# The analysis of cold DHA in plasma was performed according to a previously described HPLC method with the following modifications: for simultaneous determination of artemisinin and DHA (artemisinin as an internal standard), the Agilent Eclipse XDB-C18 column 5 μm (4.6 × 150 mm) was used with an isocratic mobile phase consisting of 40% acetonitrile: 60% ESA Acid Metabolite A (70–4835) in the reductive mode (-400 mV) for the quantification of DHA. Validation and reproducibility were evaluated and a lower limit of quantitation (LLQ) of 2.31 ng/ml for DHA was determined. The inter- and intra-day coefficient of variation for accuracy and precision were all within ± 10%.
# For pharmacokinetics, the concentration-time data of [^14C] DHA in plasma and whole blood collected during the 192 hour treatment period was fitted to a three-compartment open model using a nonlinear, extended least-square fitting procedure (WinNonlin 5.2, Pharsight Corporation, Cary, NC) using weighted (1/concentration) nonlinear regression. The area under the curve (AUC) was determined by the linear trapezoidal rule with extrapolation to infinity based on the concentration of the last time point divided by the terminal rate constant. Extrapolations to time zero were done using zero concentration for intravenous dosing and using C0 values determined from the three-compartment model equation at time zero by i.v. route. Mean clearance rate (CL) was determined by dividing the dose by the AUCinf for i.v. injection. Mean residence time (MRT) was determined by dividing the area under the first moment curve (AUMC) by the AUC. The volume of distribution at steady state (Vss) was calculated as the product of CL and MRT. The concentration-time data of unchanged DHA was fitted to a two-compartment open model. Statistical analysis was conducted with Microsoft Excel using a Student's t-test for dependent samples to compare means of paired and unpaired samples between two groups.
# [2] = Metabolic profile of [^14C] DHA (free, glucuronide and other conjugation fractions); assay type: in vivo, rats; conditions: for drug conjugation of the dose: rats i.v. 3 mg/20 μCi/kg
# Description: About 2 ml of plasma and urine, and 1 – 2 g of faeces were used. Conjugates were hydrolyzed by glucuronidase (1000 FU/ml, Sigma-Aldrich, St. Louis, MO) at pH 4.6, 38°C for 24 hours. Active enzyme was checked by phenophthaleinglucuronide at the end of incubation. Urine and faecal samples were incubated for 48 hours and fresh enzyme was added after 24 hours. Total radioactivity in free, conjugated, and the remaining aqueous fractions were measured with liquid scintillation counters. Protein precipitates were dissolved in Solvable^R (200 mg in 1 ml) and counted for radioactivity after addition of scintillation cocktail.
# rat plasma proteins = assay: Protein binding of [^14C] DHA, equilibrium dialysis, rat plasma; assay type: in vitro ADME; conditions: undiluted rat plasma, 0.15 to 57800 ng/ml, 37°C, five hours
# Description: (§1) Human blood samples (five men and five women) were freshly obtained from subject volunteers at the Department of Clinical Trials, WRAIR. Rat samples were freshly collected from five male and five female rats. Equilibrium dialysis was performed using Teflon dialysis chambers and Diachema standard membranes as described by Li and Hümpel. The GD-4/90 Equilibrium Dialyzer (MM Developments, Ottawa) contained 20 micro-dialysis cells (2.0 ml/chamber). The molecular weight cutoff for dialysis membranes was 5000 D. Equilibrium was reached after four hours, when cells were rotated at 16 rpm and 37°C. Drugs were dissolved in plasma samples with various concentrations (0.15 – 57800 ng/ml) and all experiments were carried out for five hours.
# human plasma proteins = assay: Protein binding of [^14C] DHA, equilibrium dialysis, human plasma; assay type: in vitro ADME
# Description: as §1
# [3] = blood radioactivity, three-compartment, rats single i.v. 3 mg/20 μCi/kg
# [4] = blood radioactivity, rats single i.v. 3 mg/20 μCi/kg
# [5] = plasma radioactivity, three-compartment, rats single i.v. 3 mg/20 μCi/kg
# [6] = plasma radioactivity, rats single i.v. 3 mg/20 μCi/kg
# [7] = plasma radioactivity, rats single i.v. 3 mg/20 μCi/kg, listed as 14C-Dihydroartemisinin
# [8] = plasma, rats i.v. 3 mg/20 μCi/kg
structure (smiles),measurement,setting,value
"C[C@@H]1CC[C@H]2[C@@H]([14CH3])C(O)O[C@@H]3O[C@@]4(C)CC[C@@H]1[C@]32OO4 (stereo partly shown) [[^14C] DHA, [16-^14C] DHA]",AUCinf.,[1]; [3],52690 ± 4971 ng·h/mL
same,CL,[1]; [3],43.58 ± 30.70 mL/h/kg
same,Cmax,[1]; [3],3105 ± 430 ng/mL
same,MRT,[1]; [3],148.57 ± 90.24 h
same,Vss,[1]; [3],10792 ± 3771 mL/kg
same,t1/2 – alpha,[1]; [3],10.8 ± 1.2 min
same,t1/2 – beta,[1]; [3],19.68 ± 3.88 h
same,t1/2 – gamma (terminal),[1]; [3],122.13 ± 8.73 h
same,Cmax at first peak,[1]; [4],3105 ± 430 ng/mL
same,Cmax at fourth peak,[1]; [4],833 ± 99 ng/mL
same,Cmax at second peak,[1]; [4],1557 ± 955 ng/mL
same,Cmax at third peak,[1]; [4],978 ± 164 ng/mL
same,Tmax,[1]; [4],1.2 min
same,time of first peak,[1]; [4],0.02 h
same,time of fourth peak,[1]; [4],6 h
same,time of second peak,[1]; [4],0.94 h
same,time of third peak,[1]; [4],2.00 h
same,time of fourth peak,"[1]; blood radioactivity, rats single i.v. 3 mg/20 μCi/kg, listed as 14C-Dihydroartemisinin",6.00 h
same,fourth peak concentration of radioactivity,"[1]; blood, rats i.v. 3 mg/20 μCi/kg",833 ng equivalents/ml
same,third peak concentration of radioactivity,"[1]; blood, at two hours, rats i.v. 3 mg/20 μCi/kg",978 ng equivalents/ml
same,AUCinf.,[1]; [5],21014 ± 2718 ng·h/mL
same,CL,[1]; [5],144.63 ± 18.17 mL/h/kg
same,MRT,[1]; [5],57.00 ± 2.84 h
same,Vss,[1]; [5],8216 ± 828 mL/kg
same,t1/2 – alpha,[1]; [5],12.6 ± 3 min
same,t1/2 – gamma (terminal),[1]; [5],75.57 ± 7.34 h
same,time of second peak,"[1]; plasma radioactivity, rats i.v. 3 mg/20 μCi/kg",0.183 h
same,Cmax at fourth peak,[1]; [6],584 ± 65.5 ng/mL
same,Cmax at second peak,[1]; [6],2373 ± 195 ng/mL
same,Cmax at third peak,[1]; [6],863 ± 537 ng/mL
same,Tmax,[1]; [6],1.2 min
same,time of first peak,[1]; [6],0.02 h
same,time of fourth peak,[1]; [6],6 h
same,time of second peak,[1]; [6],0.19 h
same,time of third peak,[1]; [6],1.7 h
same,time of fourth peak,[1]; [7],6.00 h
same,time of third peak,[1]; [7],1.70 h
same,fourth peak concentration of radioactivity,[1]; [8],584 ng equivalents/ml
same,first peak concentration of radioactivity,[1]; [8],"3,446 ng equivalents/g"
same,second peak concentration of radioactivity,[1]; [8],"2,373 ng equivalents/ml"
same,third peak concentration of radioactivity,[1]; [8],863 ng equivalents/ml
same,total radioactivity in the plasma fraction relative to blood total,[1]; rats i.v.,less than 25%
same,duration of total radioactivity (long-lasting metabolites),"[1]; rats, plasma, urine and faeces, single i.v. 3 mg/20 μCi/kg",> 192 h
same,time of second peak,"[1]; whole blood radioactivity, rats i.v. 3 mg/20 μCi/kg",0.933 h
same,first peak concentration of radioactivity,"[1]; whole blood, rats i.v. 3 mg/20 μCi/kg","3,105 ng equivalents/g"
same,ratio of conjugation to free,"[2]; plasma, 10 minutes",1.86
same,ratio of conjugation to free,"[2]; plasma, 1 hour after dosing",4.48
same,ratio of conjugation to free,"[2]; plasma, 192 hours",15.1
same,ratio of conjugation to free,"[2]; plasma, within five minutes after dosing",1.07
same,drug conjugation of the dose,[2]; plasma,up to 89%
same,drug conjugation of the dose,[2]; urine,≤ 95%
same,plasma protein binding percentage,rat plasma proteins,76–82%
same,maximum binding percentage,"human plasma proteins; human plasma, concentration range 0.15 – 462 ng/ml",82%
same,"binding percentage declined to, at higher concentrations","human plasma proteins; human plasma, higher concentrations (> 25 ng/ml)",66%
same,plasma protein binding percentage,"human plasma proteins; undiluted human plasma, 0.15 to 57800 ng/ml, 37°C, five hours",76–82%
